Assay results as given in patent EP4635949A1 (Jiangsu NHWA Pharmaceutical Co., Ltd, priority 2022, dated 2024).
Like-named read-outs stand apart in the source and are kept apart here. Marks after values point to notes of the source that are not given here.

Key:
OX1 receptor = biological target: T1, OX1 receptor (Homo sapiens, UniProt O43613); assay: Orexin target function test (Cisbio HTRF IP-one), CHO-K1-OX1 cells, antagonism of EC80 Orexin A; type: cell-based
T1 construct: host or cells: CHO-K1
T1 sequence (O43613 1-425): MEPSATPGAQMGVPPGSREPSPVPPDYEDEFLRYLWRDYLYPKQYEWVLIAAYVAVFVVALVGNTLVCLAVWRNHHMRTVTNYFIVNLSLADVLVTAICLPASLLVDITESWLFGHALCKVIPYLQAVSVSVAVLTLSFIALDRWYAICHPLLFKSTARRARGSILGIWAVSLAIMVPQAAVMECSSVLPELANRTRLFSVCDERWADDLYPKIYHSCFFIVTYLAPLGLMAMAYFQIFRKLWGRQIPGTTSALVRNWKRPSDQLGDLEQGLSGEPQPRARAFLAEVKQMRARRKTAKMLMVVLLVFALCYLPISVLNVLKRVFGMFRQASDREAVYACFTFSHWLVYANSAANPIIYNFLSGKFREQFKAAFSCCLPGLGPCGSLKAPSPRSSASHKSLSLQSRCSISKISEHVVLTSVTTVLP
Method: (§1) Using Cisbio HTRF IP-one kit to detect the changes in IP-one concentration of orexin receptor (OX1/OX2) signaling pathway by microplate reader, and calculating the IC50 value of the compound to evaluate the antagonistic effect of the compound on OX1 and OX2 receptors.
(§2) The cells were centrifuged at 1000 rpm for 5 minutes and the supernatant was discarded. 3 mL of PBS was added, and gently blown with a pipette to mix. After centrifugation at 1000 rpm for 5 minutes again, the supernatant was discarded. […] Based on the antagonistic effect values of the compound samples at different concentrations, the GraphPad Prism software was used to fit the orexin receptor antagonism curve of the compound samples and calculate the IC50.

in vivo = details: rat
OX2 receptor = biological target: T2, OX2 receptor (Homo sapiens, UniProt O43614); assay: Orexin target function test (Cisbio HTRF IP-one), CHO-K1-OX2 cells, antagonism of EC80 Orexin 2 receptor agonist; type: cell-based
T2 construct: host or cells: CHO-K1
T2 sequence (O43614 1-444): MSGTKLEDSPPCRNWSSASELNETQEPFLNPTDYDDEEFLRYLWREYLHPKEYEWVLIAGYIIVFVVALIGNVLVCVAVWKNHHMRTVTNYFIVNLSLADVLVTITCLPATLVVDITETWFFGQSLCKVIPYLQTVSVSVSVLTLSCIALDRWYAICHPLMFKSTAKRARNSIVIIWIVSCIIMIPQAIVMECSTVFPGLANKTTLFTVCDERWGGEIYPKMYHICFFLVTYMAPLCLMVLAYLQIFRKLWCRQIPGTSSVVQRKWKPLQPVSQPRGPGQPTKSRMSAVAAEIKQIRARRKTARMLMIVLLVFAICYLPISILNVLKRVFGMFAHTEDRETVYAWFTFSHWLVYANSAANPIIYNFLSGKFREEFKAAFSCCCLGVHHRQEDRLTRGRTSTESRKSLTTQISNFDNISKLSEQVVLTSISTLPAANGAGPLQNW
Method: as §1, §2

SD rats = assay: Autonomous activity of rats; type: in vivo
Method: The animals were placed in the test box immediately after administration, and the activity distance of the animals within 60 minutes was recorded and analyzed using Top Scan Version 3.0. […] The experimental data were expressed by mean ± standard deviation (Mean ± SD), and SPSS 21.0 statistical software was used for one-way analysis of variance. The Dunnett's test was used for pairwise comparison, and p<0.05 was represented as *.

[1] = CHO-K1-OX1 cells, IP-one, read-out: hOXIR IC50
[2] = CHO-K1-OX2 cells, IP-one, read-out: hOX2R IC50
[3] = ratio of OX1R IC50 to OX2R IC50

| Structure (SMILES) | IC50 (OX1 receptor) | AUC(0-t) (in vivo; male, SD, plasma, iv, 1 mg/kg) | Cmax (in vivo; male, SD, plasma, iv, 1 mg/kg) | AUC(0-t) (in vivo; male, SD, plasma, po, 30 mg/kg) | Cmax (in vivo; male, SD, plasma, po, 30 mg/kg) | bioavailability (in vivo; male, SD, plasma, po, 30 mg/kg) | IC50 (OX2 receptor) | Selectivity (OX2 receptor) | Activity distance (mm) (SD rats; rat, in vivo, 10 mg/kg) | Inhibition rate(%) (SD rats; rat, in vivo, 10 mg/kg) | Activity distance (mm) (SD rats; rat, in vivo, 30 mg/kg) | Inhibition rate(%) (SD rats; rat, in vivo, 30 mg/kg) | Activity distance (mm) (SD rats; rat, in vivo, 50 mg/kg) | Inhibition rate(%) (SD rats; rat, in vivo, 50 mg/kg) | IC50 (OX1 receptor; [1]) | IC50 (OX2 receptor; [2]) | Selectivity (OX2 receptor; [3]) | further results |
| --- | --- | --- | --- | --- | --- | --- | --- | --- | --- | --- | --- | --- | --- | --- | --- | --- | --- | --- |
| Cc1nc(C2=CC3CN(C(=O)c4ccc(F)cc4-n4nccn4)CC3C2)nc(C)c1F (stereo not shown) [Compound 2, (4-fluoro-2-(2H-1,2,3-triazol-2-yl)phenyl)(5-(5-fluoro-4,6-dimethylpyrimidin-2-yl)-3,3a,4,6a-tetrahydrocyclopenta[c]pyrrol-2(1H)-yl)methanone] | 2.3 µM | 0.869 µg·h/mL | 1.88 µg/mL | 15 µg·h/mL | 7.48 µg/mL | 57.6% | 0.018 µM | 128 | 52097.9±18671.68 mm | 26.66* % | 46276.83±15906.44 mm | 34.85 * % | 37866.51±7149.48 mm | 46.69* % |  |  |  |  |
| COc1ccc(C(=O)N2CC3C=C(c4nc(C)cnc4OC)CC3C2)c(-c2ncccn2)c1 (stereo not shown) [Compound 48, [4-methoxy-2-(pyrimidin-2-yl)phenyl][5-(3-methoxy-6-methylpyrazin-2-yl)-3,3a,4,6a-tetrahydrocyclopenta[c]pyrrol-2(1H)-yl]methanone] |  | 0.886 µg·h/mL | 3.31 µg/mL | 10.1 µg·h/mL | 9.41 µg/mL | 37.8% |  |  |  |  |  |  |  |  | 3.25 µM | 0.021 µM | 154 |  |
| COc1cc(-n2nccn2)c(C(=O)N2CC3C=C(c4nc(C)c(F)c(C)n4)CC3C2)cn1 (stereo not shown) [Compound 22] | 2.78 µM |  |  |  |  |  | 0.015 µM | 185 | 43970.97±9243.91 mm | 38.10* % | 37396.46±6850.26 mm | 47.35* % | 33132.59±9708.72 mm | 56.36* % |  |  |  | AUC(0-t) (in vivo; in vivo, iv, 1 mg/kg): 0.305 µg·h/mL; Cmax (in vivo; in vivo, iv, 1 mg/kg): 0.943 µg/mL; AUC(0-t) (in vivo; in vivo, po, 30 mg/kg): 2.64 µg·h/mL; Cmax (in vivo; in vivo, po, 30 mg/kg): 1.94 µg/mL; bioavailability (in vivo; in vivo, po, 30 mg/kg): 28.9% |
| COc1ncc(C)nc1C1=CC2CN(C(=O)c3ccc(F)cc3-n3cccn3)CC2C1 (stereo not shown) [Compound 61, [4-fluoro-2-(1H-pyrazol-1-yl)phenyl][5-(3-methoxy-6-methylpyrazin-2-yl)-3,3a,4,6a-tetrahydrocyclopenta[c]pyrrol-2(1H)-yl]methanone] |  | 0.737 µg·h/mL | 1.92 µg/mL | 5.4 µg·h/mL | 5.69 µg/mL | 24.4% |  | 150 |  |  |  |  |  |  | 2.1 µM | 0.014 µM |  |  |
| CCOc1ccc(C(=O)N2CC3C=C(c4nc(C)cnc4OC)CC3C2)c(-n2nccn2)c1 (stereo not shown) [Compound 45, [4-ethoxy-2-(2H-1,2,3-triazol-2-yl)phenyl][5-(3-methoxy-6-methylpyrazin-2-yl)-3,3a,4,6a-tetrahydrocyclopenta[c]pyrrol-2(1H)-yl]methanone] |  | 1.56 µg·h/mL | 2.52 µg/mL | 36 µg·h/mL | 19.6 µg/mL | 77.1% |  |  |  |  |  |  |  |  | 3 µM | 0.025 µM | 125 |  |
| Cc1nc(C2=CC3CN(C(=O)c4c(F)cccc4-n4nccn4)CC3C2)nc(C)c1F (stereo not shown) [Compound 1, (5-(5-fluoro-4,6-dimethylpyrimidin-2-yl)-3,3a,4,6a-tetrahydrocyclopenta[c]pyrrol-2(1H)-yl)(2-fluoro-6-(2H-1,2,3-triazol-2-yl)phenyl)methanone] |  |  |  |  |  |  |  | 80 |  |  |  |  |  |  | 1.13 µM | 0.014 µM |  | Inhibition rate(%) (SD rats; male SD rats, dose 10 mg/kg, versus blank vehicle group): 16.33%; Activity distance (mm) (SD rats; male SD rats, dose 10 mg/kg, within 60 minutes, Mean ± SD): 59434.65±1478.32 mm; Inhibition rate(%) (SD rats; male SD rats, dose 30 mg/kg, versus blank vehicle group): 23.37* %; Activity distance (mm) (SD rats; male SD rats, dose 30 mg/kg, within 60 minutes, Mean ± SD): 54433.35±3341.26 mm; Inhibition rate(%) (SD rats; male SD rats, dose 50 mg/kg, versus blank vehicle group): 59.81* %; Activity distance (mm) (SD rats; male SD rats, dose 50 mg/kg, within 60 minutes, Mean ± SD): 28548.56±1238.05 mm |
